Test results taken from patent publication US20210395239A1 (Hoffmann-La Roche Inc., priority 2018, published 2021).
pIC50: −log10 of the molar value.

Each compound was assayed against T1, human TLR7 (Homo sapiens, UniProt Q9NYK1) (assay: HEK293-Blue-hTLR-7 cells assay (SEAP reporter, R848 stimulation)). Details: HEK293-Blue-hTLR7 cells, R848, 20 hrs; read-out: HEK/hTLR7 IC50.
T1 construct: host or cells: HEK293 (HEK-Blue hTLR7)
T1 sequence (Q9NYK1 27-1049): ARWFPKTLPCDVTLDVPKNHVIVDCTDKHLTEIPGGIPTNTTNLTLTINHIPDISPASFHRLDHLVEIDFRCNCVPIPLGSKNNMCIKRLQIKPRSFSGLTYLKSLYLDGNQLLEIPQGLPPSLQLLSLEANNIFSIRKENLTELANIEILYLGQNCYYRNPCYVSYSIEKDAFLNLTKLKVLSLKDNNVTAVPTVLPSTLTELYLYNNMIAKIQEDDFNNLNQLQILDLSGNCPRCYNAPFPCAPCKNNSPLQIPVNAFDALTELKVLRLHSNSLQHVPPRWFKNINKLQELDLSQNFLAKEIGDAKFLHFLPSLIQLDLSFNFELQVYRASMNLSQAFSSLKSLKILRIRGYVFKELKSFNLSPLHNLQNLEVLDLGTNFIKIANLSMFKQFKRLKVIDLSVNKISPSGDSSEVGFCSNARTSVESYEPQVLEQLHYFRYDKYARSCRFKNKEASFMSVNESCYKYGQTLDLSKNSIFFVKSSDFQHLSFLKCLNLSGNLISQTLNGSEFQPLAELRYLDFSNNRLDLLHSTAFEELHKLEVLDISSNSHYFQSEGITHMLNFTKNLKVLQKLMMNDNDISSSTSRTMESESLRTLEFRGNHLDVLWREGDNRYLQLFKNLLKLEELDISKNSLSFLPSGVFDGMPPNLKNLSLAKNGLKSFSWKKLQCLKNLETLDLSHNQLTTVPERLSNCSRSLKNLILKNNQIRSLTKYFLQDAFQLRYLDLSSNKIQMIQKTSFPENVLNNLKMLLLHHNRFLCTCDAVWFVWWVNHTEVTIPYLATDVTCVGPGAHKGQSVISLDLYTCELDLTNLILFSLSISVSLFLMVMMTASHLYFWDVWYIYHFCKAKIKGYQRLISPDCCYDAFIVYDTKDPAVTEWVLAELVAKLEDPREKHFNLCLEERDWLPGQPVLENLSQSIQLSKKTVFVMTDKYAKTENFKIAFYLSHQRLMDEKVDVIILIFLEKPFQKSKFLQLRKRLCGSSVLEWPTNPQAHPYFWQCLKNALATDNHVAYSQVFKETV
Assay type: cell-based
Outline: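 HEK293-Blue-hTLR7 cells (NF-κB/AP-1-driven SEAP reporter) were stimulated with R848 alongside serially diluted compound at 1% final DMSO for 20 h at 37 °C. Supernatant SEAP was then developed with QUANTI-Blue for 2 h at 37 °C and absorbance read at 620–655 nm; antagonism is measured as reduced reporter signal.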

Cc1cc(N2CCN(C[C@H]3CN(c4ccc(C#N)c5ncccc45)C[C@@H](C)O3)CC2)nc(N2C[C@H](N)C[C@H](F)C2)n1 (relative stereo) [Example 74, 5-[(2R,6S)-2-methyl-6-[[4-[6-methyl-2-[cis-3-amino-5-fluoro-1-piperidyl]pyrimidin-4-yl]piperazin-1-yl]methyl]morpholin-4-yl]quinoline-8-carbonitrile] and Cc1cc(N2CCN(C[C@H]3CN(c4ccc(C#N)c5ncccc45)C[C@@H](C)O3)CC2)nc(N2C[C@H](N)C[C@@H](F)C2)n1 (relative stereo) [Example 75, 5-[(2R,6S)-2-methyl-6-[[4-[6-methyl-2-[trans-3-amino-5-fluoro-1-piperidyl]pyrimidin-4-yl]piperazin-1-yl]methyl]morpholin-4-yl]quinoline-8-carbonitrile] are within 0.2 log units of each other in pIC50: 7.62 for the first, 7.60 for the second.

CO[C@H]1CN(c2nc(C)cc(N3CCN(C[C@H]4CN(c5ccc(C#N)c6ncccc56)C[C@@H](C)O4)CC3)n2)C[C@@H]1N (single isomer, unassigned) [Example 69A] and CO[C@@H]1CN(c2nc(C)cc(N3CCN(C[C@H]4CN(c5ccc(C#N)c6ncccc56)C[C@@H](C)O4)CC3)n2)C[C@H]1N (single isomer, unassigned) [Example 69B] are within 0.2 log units of each other in pIC50: 7.96 for the first, 8.15 for the second.

Compared with Cc1cc(N2CCN(C[C@H]3CN(c4ccc(C#N)c5ncccc45)C[C@@H](C)O3)CC2)nc(N2CC[C@@H](F)C(N)C2)n1 (single isomer, unassigned) [Example 84], Cc1cc(N2CCN(C[C@H]3CN(c4ccc(C#N)c5ncccc45)C[C@@H](C)O3)CC2)nc(N2CC[C@@H](F)[C@@H](N)C2)n1 [Example 83, 5-[(2R,6S)-2-methyl-6-[[4-[6-methyl-2-[(3S,4R)-3-amino-4-fluoro-1-piperidyl]-pyrimidin-4-yl]piperazin-1-yl]methyl]morpholin-4-yl]quinoline-8-carbonitrile] is 0.51 log units lower in pIC50: 8.00 for the first, 7.49 for the second. The first is the more potent here.

Compared with COC1CN(c2nc(C)cc(N3CCN(C[C@H]4CN(c5ccc(C#N)c6ncccc56)C[C@@H](C)O4)CC3)n2)CC1N (single isomer, unassigned) [Example 88], CO[C@@H]1CN(c2nc(C)cc(N3CCN(C[C@H]4CN(c5ccc(C#N)c6ncccc56)C[C@@H](C)O4)CC3)n2)C[C@@H]1N [Example 72, 5-[(2S,6R)-2-[[4-[2-[(3S,4R)-3-amino-4-methoxy-pyrrolidin-1-yl]-6-methyl-pyrimidin-4-yl]piperazin-1-yl]methyl]-6-methyl-morpholin-4-yl]quinoline-8-carbonitrile] is 0.54 log units higher in pIC50: 7.68 for the first, 8.22 for the second.

COC1CNCC1Nc1nc(C)cc(N2CCN(C[C@H]3CN(c4ccc(C#N)c5ncccc45)C[C@@H](C)O3)CC2)n1 (stereo in doubt) [Example 70, 5-[(2S,6R)-2-[[4-[2-[[(3R,4R)-4-methoxypyrrolidin-3-yl]amino]-6-methyl-pyrimidin-4-yl]piperazin-1-yl]methyl]-6-methyl-morpholin-4-yl]quinoline-8-carbonitrile] and Cc1cc(N2CCN(C[C@H]3CN(c4ccc(C#N)c5ncccc45)C[C@@H](C)O3)CC2)nc(NC2CNCC2F)n1 (stereo in doubt) [Example 73, 5-[(2S,6R)-2-[[4-[2-[[(3S,4R)-4-fluoropyrrolidin-3-yl]amino]-6-methyl-pyrimidin-4-yl]piperazin-1-yl]methyl]-6-methyl-morpholin-4-yl]quinoline-8-carbonitrile] are within 0.2 log units of each other in pIC50: 7.15 for the first, 7.31 for the second.

Cc1cc(N2CCN(C[C@H]3CN(c4ccc(C#N)c5ncccc45)C[C@@H](C)O3)CC2)nc(N2CC[C@@H](N)C(F)C2)n1 (stereo in doubt) [Example 82, 5-[(2S,6R)-2-[[4-[2-[(3R,4R)-4-amino-3-fluoro-1-piperidyl]-6-methyl-pyrimidin-4-yl]piperazin-1-yl]methyl]-6-methyl-morpholin-4-yl]quinoline-8-carbonitrile] and Cc1cc(N2CCN(C[C@H]3CN(c4ccc(C#N)c5ncccc45)C[C@@H](C)O3)CC2)nc(N2CC[C@@H](N)[C@@H](F)C2)n1 [Example 78, 5-[(2S,6R)-2-[[4-[2-[(3S,4R)-4-amino-3-fluoro-1-piperidyl]-6-methyl-pyrimidin-4-yl]piperazin-1-yl]methyl]-6-methyl-morpholin-4-yl]quinoline-8-carbonitrile] are within 0.2 log units of each other in pIC50: 7.54 for the first, 7.70 for the second.

Compared with CO[C@H]1CN(c2nc(C)cc(N3CCN(C[C@H]4CN(c5ccc(C#N)c6ncccc56)C[C@@H](C)O4)CC3)n2)CCC1N (stereo in doubt) [Example 90, 5-[(2S,6R)-2-[[4-[2-[(3S,4S)-4-amino-3-methoxy-1-piperidyl]-6-methyl-pyrimidin-4-yl]piperazin-1-yl]methyl]-6-methyl-morpholin-4-yl]quinoline-8-carbonitrile], Cc1cc(N2CCN(C[C@H]3CN(c4ccc(C#N)c5ncccc45)C[C@@H](C)O3)CC2)nc(N2CC(N)C2)n1 [Example 87, 5-[(2S,6R)-2-[[4-[2-(3-aminoazetidin-1-yl)-6-methyl-pyrimidin-4-yl]piperazin-1-yl]methyl]-6-methyl-morpholin-4-yl]quinoline-8-carbonitrile] is 0.42 log units higher in pIC50: 7.68 for the first, 8.10 for the second. The second is the more potent here.

First: Cc1cc(N2CCN(C[C@H]3CN(c4ccc(C#N)c5ncccc45)C[C@@H](C)O3)CC2)nc(N[C@@H]2CNC[C@@H]2F)n1 [Example 71, 5-[(2S,6R)-2-[[4-[2-[[(3R,4S)-4-fluoropyrrolidin-3-yl]amino]-6-methyl-pyrimidin-4-yl]piperazin-1-yl]methyl]-6-methyl-morpholin-4-yl]quinoline-8-carbonitrile]
Second: Cc1cc(N2CCN(C[C@H]3CN(c4ccc(C#N)c5ncccc45)C[C@@H](C)O3)CC2)nc(N[C@@H]2CNC[C@H]2F)n1 [Example 76, 5-[(2S,6R)-2-[[4-[2-[[(3R,4R)-4-fluoropyrrolidin-3-yl]amino]-6-methyl-pyrimidin-4-yl]piperazin-1-yl]methyl]-6-methyl-morpholin-4-yl]quinoline-8-carbonitrile]
The pIC50 of the first is 0.35 log units lower: 7.35 for the first, 7.70 for the second.

Cc1cc(N2CCN(C[C@H]3CN(c4ccc(C#N)c5ncccc45)C[C@@H](C)O3)CC2)nc(N2C[C@@H](N)C[C@@H](F)C2)n1 [Example 77, 5-[(2S,6R)-2-[[4-[2-[(3S,5R)-3-amino-5-fluoro-1-piperidyl]-6-methyl-pyrimidin-4-yl]piperazin-1-yl]methyl]-6-methyl-morpholin-4-yl]quinoline-8-carbonitrile] and Cc1cc(N2CCN(C[C@H]3CN(c4ccc(C#N)c5ncccc45)C[C@@H](C)O3)CC2)nc(N2C[C@@H](N)[C@H](F)C2)n1 [Example 79, 5-[(2S,6R)-2-[[4-[2-[(3R,4R)-3-amino-4-fluoro-pyrrolidin-1-yl]-6-methyl-pyrimidin-4-yl]piperazin-1-yl]methyl]-6-methyl-morpholin-4-yl]quinoline-8-carbonitrile] are within 0.2 log units of each other in pIC50: 7.59 for the first, 7.68 for the second.

Compared with Cc1cc(N2CCN(C[C@H]3CN(c4ccc(C#N)c5ncccc45)C[C@@H](C)O3)CC2)nc(N2CC(N)CC(F)(F)C2)n1 (stereo partly drawn) [Example 80, 5-[(2S,6R)-2-[[4-[2-(5-amino-3,3-difluoro-1-piperidyl)-6-methyl-pyrimidin-4-yl]piperazin-1-yl]methyl]-6-methyl-morpholin-4-yl]quinoline-8-carbonitrile], Cc1cc(N2CCN(C[C@H]3CN(c4ccc(C#N)c5ncccc45)C[C@@H](C)O3)CC2)nc(N2CCC(N)C(F)(F)C2)n1 (stereo partly drawn) [Example 86, 5-[(2S,6R)-2-[[4-[2-(4-amino-3,3-difluoro-1-piperidyl)-6-methyl-pyrimidin-4-yl]piperazin-1-yl]methyl]-6-methyl-morpholin-4-yl]quinoline-8-carbonitrile] is 0.69 log units higher in pIC50: 6.97 for the first, 7.66 for the second. The second is the more potent here.

Compared with Cc1cc(N2CCN(C[C@H]3CN(c4ccc(C#N)c5ncccc45)C[C@@H](C)O3)CC2)nc(N2CCNC(C(C)(C)O)C2)n1 (stereo partly drawn) [Example 81, 5-[(2S,6R)-2-[[4-[2-[3-(1-hydroxy-1-methyl-ethyl)piperazin-1-yl]-6-methyl-pyrimidin-4-yl]piperazin-1-yl]methyl]-6-methyl-morpholin-4-yl]quinoline-8-carbonitrile], C[C@@H]1CN(c2ccc(C#N)c3ncccc23)C[C@H](CN2CCN(c3ccccc3C3CNCCO3)CC2)O1 (stereo partly drawn) [Example 89, 5-[(2R,6S)-2-methyl-6-[[4-(2-morpholin-2-ylphenyl)piperazin-1-yl]methyl]morpholin-4-yl]quinoline-8-carbonitrile] is 0.56 log units higher in pIC50: 7.66 for the first, 8.22 for the second. The second is the more potent here.
